Test results: US20060063764A1, “Insect repellents” (Givaudan SA, priority 2002, published 2006)
Where “and” joins values, the source holds several entries; their conditions need not be identical. Equal values may be shown once.

System: German cockroaches (Blatella Germanica)
Experiment: Cockroach repellency on partially treated melamine-formaldehyde laminate surface (harbourage choice test)
Type: in vivo
Conditions: 20 mg/m^2; for Percentage Present on treated section, Average / Percentage Present on untreated section, Average: Average of days 1, 2, 3; for Number of Cockroaches present, Treated Section / Number of Cockroaches present, Untreated Section / Number of Cockroaches, Dead: single replicate, n = 20; for Number of Cockroaches present, Treated Section, Total of 4 replicates / Number of Cockroaches present, Untreated Section, Total of 4 replicates / Number of Cockroaches, Dead, Total of 4 replicates: total of 80
Procedure: The effectiveness of compounds of formula I as insect repellents is determined using German cockroaches exposed to a melamine-formaldehyde laminate surface partially treated/partially untreated with a test compound of formula I.
The study was conducted in an air-conditioned laboratory at a temperature of 22°±2° ° C. under a normal day/night cycle, using German cockroaches (Blatella Germanica) of mixed sex and age. The study was conducted over a 3 day period and the repellent effectiveness was assessed 1, 2 and 3 days after cockroach introduction.
One half of a rectangle of laminate 40 cm×30 cm was treated at 20 mg/m^2 of a test compound of formula I. This was achieved by soaking a paper wipe (“Rag on a Roll” ca 20 cm×20 cm) in a solution of the test compound in ethanol, squeezing out the excess liquid and wiping over the surface to give the required coverage. This was checked by weighing the cloth after application. The surface was allowed to dry. The other half of the rectangle was wiped with ethanol alone (untreated surface).
The treated laminate rectangle was placed on the bench and a plastic container was placed on the rectangle. This had been treated with “Fluon” (trade mark), a sprayable fluoropolymer, to prevent cockroach escape.
Two sheets of laminate (10 cm×10 cm) were placed on the laminate, one on the treated surface and one on the untreated surface. This acted as a cockroach harbourage. The laminate sheet to be used in the treated section was treated at the same rate as the treated laminate. The laminate was placed on two 1 cm high bottle tops to allow cockroaches access under the laminate.
20 German cockroaches were added (5 adults and 15 nymphs) to the centre of the laminate. No food and water was supplied for these cockroaches.
At 1, 2 and 3 days after cockroach introduction the number of cockroaches under each harbourage was counted. After each count the harbourage position was changed to avoid the possibility of habituation to one location, the harbourages were replaced and new cockroaches were added to replace any dead cockroaches.
The above was repeated 3 times to provide a total of 4 replicates.
The methodology of Example 2 was repeated for all of the compounds set forth in Example 1.

[1] = 1 day after cockroach introduction
[2] = 2 days after cockroach introduction
[3] = 3 days after cockroach introduction

| Compound | Percentage Present on treated section (1 day after treatment) [%] | Percentage Present on untreated section (1 day after treatment) [%] | Percentage Present on treated section (2 days after treatment) [%] | Percentage Present on untreated section (2 days after treatment) [%] | Percentage Present on treated section (3 days after treatment) [%] | Percentage Present on untreated section (3 days after treatment) [%] | Percentage Present on treated section, Average [%] | Percentage Present on untreated section, Average [%] | other results |
| --- | --- | --- | --- | --- | --- | --- | --- | --- | --- |
| CCN(CC)C(=O)O[C@@H]1C[C@H](C)CC[C@H]1C(C)C | 7.6 | 92.4 | 2.5 | 97.5 | 2.5 | 97.5 | 4.2 | 95.8 |  |
| CC(C)[C@@H]1CC[C@@H](C)C[C@H]1OC(=O)Nc1ccccc1 | 2.5 | 97.5 | 3.7 | 96.3 | 2.5 | 97.5 | 2.9 | 97.1 |  |
| CC(C)[C@@H]1CC[C@@H](C)C[C@H]1OC(=O)N1CCCC1 | 2.5 | 97.5 | 7.5 | 92.5 | 12.7 | 87.3 | 7.6 | 92.4 |  |
| CC(C)[C@@H]1CC[C@@H](C)C[C@H]1OC(=O)N1CCOCC1 | 17.5 | 82.5 | 17.5 | 82.5 | 25.0 | 75.0 | 20.0 | 80.0 |  |
| CC(C)[C@@H]1CC[C@@H](C)C[C@H]1OC(=O)N1CCCCC1 | 10.0 | 90.0 | 11.3 | 88.7 | 3.9 | 96.1 | 8.4 | 91.6 |  |
| CC(C)CNC(=O)O[C@@H]1C[C@H](C)CC[C@H]1C(C)C | 31.3 | 68.7 | 17.5 | 82.5 | 16.3 | 83.7 | 21.7 | 78.3 |  |
| CCCCNC(=O)O[C@@H]1C[C@H](C)CC[C@H]1C(C)C | 6.3 | 93.7 | 17.5 | 82.5 | 7.5 | 92.5 | 10.5 | 89.6 |  |
| COC(=O)CCNC(=O)O[C@@H]1C[C@H](C)CC[C@H]1C(C)C | 11.4 | 88.6 | 2.5 | 97.5 | 10.0 | 90.0 | 8.0 | 92.0 |  |
| CNC(=O)O[C@@H]1C[C@H](C)CC[C@H]1C(C)C [Methyl-Carbamic Acid (−)-Menthyl Ester, Methyl-carbamic acid (−)-menthyl ester] |  |  |  |  |  |  |  |  | Number of Cockroaches present, Treated Section [1]: 0 (2×) and 3 and 1; Number of Cockroaches present, Untreated Section [1]: 20 and 19 (2×) and 17; Number of Cockroaches, Dead [1]: 0 (3×) and 1; Number of Cockroaches present, Treated Section, Total of 4 replicates [1]: 4; Number of Cockroaches present, Untreated Section, Total of 4 replicates [1]: 75; Number of Cockroaches, Dead, Total of 4 replicates [1]: 1; Number of Cockroaches present, Treated Section [2]: 1 (2×) and 0 (2×); Number of Cockroaches present, Untreated Section [2]: 19 (3×) and 20; Number of Cockroaches, Dead [2]: 0 (3×) and 1; Number of Cockroaches present, Treated Section, Total of 4 replicates [2]: 2; Number of Cockroaches present, Untreated Section, Total of 4 replicates [2]: 77; Number of Cockroaches, Dead, Total of 4 replicates [2]: 1; Number of Cockroaches present, Treated Section [3]: 0 (3×) and 1; Number of Cockroaches present, Untreated Section [3]: 20 (3×) and 19; Number of Cockroaches, Dead [3]: 0; Number of Cockroaches present, Treated Section, Total of 4 replicates [3]: 1; Number of Cockroaches present, Untreated Section, Total of 4 replicates [3]: 79; Number of Cockroaches, Dead, Total of 4 replicates [3]: 0 |
| CNC(=O)O[C@@H]1C[C@H](C)CC[C@H]1C(C)C [drawing 13] | 5.1 | 94.9 | 2.5 | 97.5 | 1.3 | 98.7 | 3.0 | 97.0 |  |
